Test results from PubChem BioAssay AID248 (DTP/NCI, 2004).
Values joined by “and” are separate entries in the source; they are usually repeats but may differ in a detail not shown here. Equal values may be shown once. Inconclusive results and toxic doses are left out. Rule as the data show it: active = T/C of 150% or more; inactive = T/C below 125%.

Tested on: L1210 leukemia ip in BDF1 mice, survival T/C
Test: NCI In Vivo Anticancer Drug Screen. Data for tumor model L1210 Leukemia (intraperitoneal) in B6D2F1 (BDF1) mice
Conditions: endpoint: mean survival time, higher = longer survival
Method in brief: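 Transplanted-tumor mice were given test agent; controls received vehicle only. Survival readings from the two groups were divided (treated over control).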

[1] = dose: 100.0 mg/kg/injection, schedule: Q04DX003 (ip), vehicle: saline with Tween-80
[2] = dose: 200.0 mg/kg/injection, schedule: Q04DX003 (ip), vehicle: saline with Tween-80
[3] = dose: 400.0 mg/kg/injection, schedule: Q04DX003 (ip), vehicle: saline with Tween-80
[4] = dose: 100.0 mg/kg/injection, schedule: Q01DX009 (ip), vehicle: saline with Tween-80
[5] = dose: 200.0 mg/kg/injection, schedule: Q01DX009 (ip), vehicle: saline with Tween-80
[6] = dose: 400.0 mg/kg/injection, schedule: Q01DX009 (ip), vehicle: saline with Tween-80
[7] = dose: 100.0 mg/kg/injection, schedule: Q01DX009 (ip), vehicle: Klucel (hydroxypropylcellulose) (HPC)
[8] = dose: 200.0 mg/kg/injection, schedule: Q01DX009 (ip), vehicle: Klucel (hydroxypropylcellulose) (HPC)
[9] = dose: 400.0 mg/kg/injection, schedule: Q01DX009 (ip), vehicle: Klucel (hydroxypropylcellulose) (HPC)
[10] = dose: 100.0 mg/kg/injection, schedule: Q04DX003 (ip), vehicle: Klucel (hydroxypropylcellulose) (HPC)
[11] = dose: 200.0 mg/kg/injection, schedule: Q04DX003 (ip), vehicle: Klucel (hydroxypropylcellulose) (HPC)
[12] = dose: 400.0 mg/kg/injection, schedule: Q04DX003 (ip), vehicle: Klucel (hydroxypropylcellulose) (HPC)
[13] = dose: 100.0 mg/kg/injection, schedule: Q01DX001 (ip), vehicle: carboxymethylcellulose (CMC)
[14] = dose: 200.0 mg/kg/injection, schedule: Q01DX001 (ip), vehicle: carboxymethylcellulose (CMC)
[15] = dose: 400.0 mg/kg/injection, schedule: Q01DX001 (ip), vehicle: carboxymethylcellulose (CMC)
[16] = dose: 100.0 mg/kg/injection, schedule: Q01DX001 (ip), vehicle: saline
[17] = dose: 200.0 mg/kg/injection, schedule: Q01DX001 (ip), vehicle: saline
[18] = dose: 400.0 mg/kg/injection, schedule: Q01DX001 (ip), vehicle: saline
[19] = dose: 50.0 mg/kg/injection, schedule: Q01DX001 (ip), vehicle: saline
[20] = dose: 25.0 mg/kg/injection, schedule: Q04DX003 (ip), vehicle: Klucel (hydroxypropylcellulose) (HPC)
[21] = dose: 50.0 mg/kg/injection, schedule: Q04DX003 (ip), vehicle: Klucel (hydroxypropylcellulose) (HPC)

Measured: T/C

CN(C)C(=Nc1ccccc1)N(C)N
inactive: dose: 37.5 mg/kg/injection, schedule: Q04DX003 (ip), vehicle: saline 102 % of control | dose: 75.0 mg/kg/injection, schedule: Q04DX003 (ip), vehicle: saline 101 % of control | dose: 150.0 mg/kg/injection, schedule: Q04DX003 (ip), vehicle: saline 102 % of control

Cc1ccc(C(=O)CCC(=O)O)c(C)c1
inactive: [1] 100 % of control | [2] 98 % of control | [3] 98 % of control

COc1c(NC(=O)c2ccc(Cl)c(Cl)c2)cccc1[N+](=O)[O-]
inactive: [4] 89 % of control | [5] 89 % of control | [6] 89 % of control

CNC(Cc1ccccc1)c1ccco1 (centres undefined)
inactive: dose: 50.0 mg/kg/injection, schedule: Q01DX009 (ip), vehicle: Klucel (hydroxypropylcellulose) (HPC) 104 % of control | [7] 104 % of control | dose: 100.0 mg/kg/injection, schedule: Q04DX002 (ip), vehicle: saline with Tween-80 107 % of control | [8] 102 % of control | dose: 200.0 mg/kg/injection, schedule: Q04DX002 (ip), vehicle: saline with Tween-80 110 % of control

CC12CC3CC(C)(C1)CC(SC(=N)N)(C3)C2
inactive: dose: 10.0 mg/kg/injection, schedule: Q04DX002 (ip), vehicle: Klucel (hydroxypropylcellulose) (HPC) 97 % of control | dose: 20.0 mg/kg/injection, schedule: Q04DX002 (ip), vehicle: Klucel (hydroxypropylcellulose) (HPC) 102 % of control | dose: 40.0 mg/kg/injection, schedule: Q04DX002 (ip), vehicle: Klucel (hydroxypropylcellulose) (HPC) 105 % of control

Cc1ccnc(NC(=O)Nc2ccc(F)c([N+](=O)[O-])c2)c1
inactive: [7] 91 % of control | [8] 96 % of control | [9] 104 % of control

Cc1c(Cl)cccc1NC(=O)c1ccccc1C(=O)O
inactive: [7] 98 % of control | [10] 96 % of control | [8] 104 % of control | [11] 100 % of control | [9] 102 % of control | [12] 102 % of control

CC(C)CCC1(CCBr)C(=O)NC(=Nc2ccccc2)NC1=O (centres undefined)
inactive: [13] 96 % of control | [14] 102 % of control | [15] 94 % of control

CC(=O)N1N=C(c2ccccc2)CC1C1CC(c2ccccc2)=NN1C(C)=O (centres undefined)
inactive: [16] 102 % of control | [17] 100 % of control | [18] 102 % of control

O=C(N/N=C\C=C\c1ccccc1)c1ccc(Cl)cc1
inactive: dose: 50.0 mg/kg/injection, schedule: Q01DX009 (ip), vehicle: saline with Tween-80 93 % of control | [4] 89 % of control | [5] 86 % of control

Fc1ccccc1N=C=S
inactive: dose: 75.0 mg/kg/injection, schedule: Q01DX001 (ip), vehicle: other 104 % of control | dose: 150.0 mg/kg/injection, schedule: Q01DX001 (ip), vehicle: other 93 % of control

O=S(Cc1ccccc1)Cc1ccccc1
inactive: [19] 110 % of control | [16] 110 % of control | [7] 103 % of control | [10] 90 % of control | [17] 103 % of control | [8] 100 % of control | [11] 97 % of control | [18] 100 % of control | [9] 102 % of control | [12] 100 % of control

CCCCCCCCCCCCCCCCCCN=C(Cl)Cl
inactive: dose: 100.0 mg/kg/injection, schedule: Q01DX001 (ip), vehicle: Klucel (hydroxypropylcellulose) (HPC) 88 % of control | dose: 200.0 mg/kg/injection, schedule: Q01DX001 (ip), vehicle: Klucel (hydroxypropylcellulose) (HPC) 96 % of control | dose: 400.0 mg/kg/injection, schedule: Q01DX001 (ip), vehicle: Klucel (hydroxypropylcellulose) (HPC) 98 % of control

CC(=O)c1ccc(C(=O)NCCCc2c(C)nc(N)[nH]c2=O)cc1
inactive: [1] 95 % of control | [2] 90 % of control | [3] 90 % of control

CCCNC(=O)Oc1ccccc1C(=O)NCO
inactive: dose: 100.0 mg/kg/injection, schedule: Q01DX009 (ip), vehicle: other 101 % of control | dose: 200.0 mg/kg/injection, schedule: Q01DX009 (ip), vehicle: other 96 % of control

Cn1c(=O)c2c(nc(OC3CCC=CO3)n2C)n(C)c1=O (centres undefined)
inactive: dose: 50.0 mg/kg/injection, schedule: Q01DX001 (ip), vehicle: other 98 % of control | dose: 100.0 mg/kg/injection, schedule: Q01DX001 (ip), vehicle: other 95 % of control | dose: 200.0 mg/kg/injection, schedule: Q01DX001 (ip), vehicle: other 88 % of control

CCOc1ccccc1/C=N/Nc1nnc(N/N=C/c2ccccc2OCC)c2ccccc12
inactive: dose: 50.0 mg/kg/injection, schedule: Q01DX001 (ip), vehicle: carboxymethylcellulose (CMC) 91 % of control | [13] 97 % of control | [14] 97 % of control | [15] 91 % of control

NC(N)=NC(N)=NCCCCc1ccccc1
inactive: [20] 95 % of control | [21] 109 % of control | [10] 101 % of control

CN(C1CCCCC1)C1CCCCC1
inactive: dose: 6.25 mg/kg/injection, schedule: Q01DX009 (ip), vehicle: Klucel (hydroxypropylcellulose) (HPC) 100 % of control | dose: 12.5 mg/kg/injection, schedule: Q01DX009 (ip), vehicle: Klucel (hydroxypropylcellulose) (HPC) 91 % of control | dose: 25.0 mg/kg/injection, schedule: Q01DX009 (ip), vehicle: Klucel (hydroxypropylcellulose) (HPC) 96 % of control and 107 % of control | [20] 97 % of control | [21] 102 % of control | dose: 75.0 mg/kg/injection, schedule: Q01DX001 (ip), vehicle: saline 108 % of control | [10] 97 % of control | dose: 150.0 mg/kg/injection, schedule: Q01DX001 (ip), vehicle: saline 109 % of control

Cc1ccc2[nH]c(O)c(N=Nc3ccccc3[N+](=O)[O-])c2c1
inactive: [16] 90 % of control | [17] 93 % of control

c1ccc(C2c3cc4ccccc4cc3Oc3ccc4ccccc4c32)cc1 (centres undefined)
inactive: dose: 75.0 mg/kg/injection, schedule: Q04DX003 (ip), vehicle: other 94 % of control | dose: 300.0 mg/kg/injection, schedule: Q04DX003 (ip), vehicle: other 103 % of control

COc1cc(N(CCCl)CCCl)c(OC)cc1C=Nc1cccc(C(F)(F)F)c1
inactive: [13] 120 % of control | [14] 115 % of control | [15] 98 % of control

CC(CCC(CCC(C)CC(C)(C)C)CCC(C)CC(C)(C)C)CC(C)(C)C (centres undefined)
inactive: dose: 75.0 mg/kg/injection, schedule: Q01DX001 (ip), vehicle: saline with Tween-80 104 % of control | dose: 300.0 mg/kg/injection, schedule: Q01DX001 (ip), vehicle: saline with Tween-80 97 % of control

CC(C)N(CCO)CCO
inactive: dose: 100.0 mg/kg/injection, schedule: Q04DX003 (ip), vehicle: saline 100 % of control | dose: 200.0 mg/kg/injection, schedule: Q04DX003 (ip), vehicle: saline 102 % of control | dose: 400.0 mg/kg/injection, schedule: Q04DX003 (ip), vehicle: saline 100 % of control

CC(=O)N(NC(=O)c1ccccn1)C(C)=O
inactive: dose: 100.0 mg/kg/injection, schedule: Q01DX001 (ip), vehicle: water 97 % of control | dose: 200.0 mg/kg/injection, schedule: Q01DX001 (ip), vehicle: water 106 % of control

OCC(O)C(O)C(O)C(O)C(c1ccc(Cl)cc1)c1ccc(Cl)cc1 (centres undefined)
inactive: [19] 101 % of control and 98 % of control | [16] 101 % of control and 93 % of control and 88 % of control | [17] 95 % of control and 91 % of control | [18] 95 % of control and 96 % of control

C=CCn1c2ccccc2c2cc3cnccc3c(C)c21
inactive: dose: 6.25 mg/kg/injection, schedule: Q04DX003 (ip), vehicle: Klucel (hydroxypropylcellulose) (HPC) 100 % of control | dose: 12.5 mg/kg/injection, schedule: Q04DX003 (ip), vehicle: Klucel (hydroxypropylcellulose) (HPC) 97 % of control | [20] 100 % of control | [10] 102 % of control | [11] 97 % of control | [12] 105 % of control

CCOC(=O)c1ccc(NC(=S)Nc2ccc(C(=O)OCC)cc2)cc1
inactive: [4] 95 % of control | [1] 89 % of control | [5] 93 % of control | [2] 87 % of control | [6] 95 % of control | [3] 94 % of control

COC(=O)c1ccc(C)cn1
inactive: [16] 100 % of control
